# Tests used:
# corneal epithelial wound = assay: Alkali burn corneal wound in rabbits; type: in vivo; settings: FIG. 3; rabbit model, b270 says mouse models; topical three times a day
# Excerpt: Alkali burn in rabbits: Corneal epithelium plays an important role in the maintenance of corneal function and integrity. Prolonged corneal epithelial defects causes corneal opacity, neovascularization, bacterial infection and visual loss. Corneal epithelial healing is a complex process involving inflammatory response to injury, cell proliferation and migration. Animal models of corneal injury are every useful to test new anti-inflammatory and pro-wound healing therapies. New Zealand White rabbits weighing between 2.1 and 2.5 kg were anesthetized systemically with Ketamine/Xylazine (35/5 mg/kg) subcutaneously and topically with proparacaine (0.5%). The corneal epithelial wound in one eye was induced with a NaOH saturated filter paper containing 1.0 N NaOH for 30 seconds. The eyes were rinsed with sterile PBS. The corneal wound was confirmed by fluorescein staining with 10% sodium fluorescein (Science Lab Com) and slit lamp photography. Test compounds were formulated in the vehicle described above. For initial studies compounds were topically dosed three times a day. Quantification of corneal wound areas was done using Image J software where fluorescing stain green part was traced and converted to total pixel.
# FPR2 [1] = target: T1, FPR2 (Homo sapiens (Human), UniProt P25090); assay: FLIPR Ca+2 response, HEK-Gα16 cells stably expressing the human FPR2 receptor (Table 4); type: cell-based; settings: for FPR2 (efficacy): efficacy in parentheses
# T1 sequence (P25090 whole entry): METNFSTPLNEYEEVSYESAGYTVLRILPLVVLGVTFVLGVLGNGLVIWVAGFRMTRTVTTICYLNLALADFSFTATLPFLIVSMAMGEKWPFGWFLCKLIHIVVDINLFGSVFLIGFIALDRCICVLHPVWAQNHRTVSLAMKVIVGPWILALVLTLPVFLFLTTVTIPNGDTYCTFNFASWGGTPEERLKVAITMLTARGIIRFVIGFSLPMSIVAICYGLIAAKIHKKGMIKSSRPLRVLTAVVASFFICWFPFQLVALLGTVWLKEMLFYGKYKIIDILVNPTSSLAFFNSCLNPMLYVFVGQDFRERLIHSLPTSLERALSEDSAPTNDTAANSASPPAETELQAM
# Procedure, shortened: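 HEK-Gα16 cells stably expressing human FPR2, loaded with 2 μM Fluo-4 in HBSS/20 mM HEPES for 40 min at 37° C., then washed. Ligands added in HBSS/Hepes and Ca+2 responses recorded on FLIPR in relative fluorescence units.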
# FPR2 [2] = target: T1, FPR2; assay: FPR2 Ga16-CHO EC50 (efficacy), Tables 1-3; type: cell-based; settings: for FPR2 Ga16-CHO (efficacy): efficacy in parentheses
compound,measurement,setting,value
"CC[C@H](C)[C@H](NC(=O)Nc1ccc(Br)cc1)C(=O)NCC(=O)O [Compound 3, {[(2S,3S)-2-{[(4-bromophenyl)carbamoyl]amino}-3-methylpentanoyl]amino}acetic acid]",healing and re-epithelialization of corneal wound,corneal epithelial wound,accelerated healing and re-epithelialization
same,FPR2 (efficacy),FPR2 [1],(1.0)
same,EC50,FPR2 [1]; unit inferred,1.98 nM
"CC[C@H](C)[C@H](NC(=O)Nc1ccc(Br)cc1)C(=O)O [Compound 53, (2S,3S)-2-{[(4-bromophenyl)carbamoyl]amino}-3-methylpentanoic acid]",FPR2 Ga16-CHO (efficacy),FPR2 [2],nM (0.89)
same,FPR2 (efficacy),FPR2 [1],nM (0.9)
"O=C(CN1C(=O)C2C3C=CC(C3)C2C1=O)Nc1ccc(Br)cc1 (stereo not drawn) [N-(4-bromophenyl)-1,3,3a,4,7,7a-hexahydro-1,3-dioxo-4,7-methano-2H-isoindole-2-acetamide]",FPR2 Ga16-CHO (efficacy),FPR2 [2],(0.90)
CC(C)[C@H](NC(=O)Nc1ccc(Br)cc1)C(=O)O [(2S)-2-({[(4-bromophenyl)amino]carbonyl}amino)-3-methylbutanoic acid],EC50,FPR2 [2],72 nM
same,FPR2 Ga16-CHO (efficacy),FPR2 [2],nM (0.91)
O=C(Nc1ccc(Cl)cc1)NC(Cc1ccccc1)C(=O)O (stereo not drawn) [2-({[(4-chlorophenyl)amino]carbonyl}amino)-3-phenylpropanoic acid],EC50,FPR2 [2],110 nM
same,FPR2 Ga16-CHO (efficacy),FPR2 [2],nM (1.0)
"CC1(CCc2ccccc2)NC(=O)N(NC(=O)Nc2ccccc2)C1=O (stereo not drawn) [1-[4-methyl-2,5-dioxo-4-(2-phenylethyl)imidazolidin-1-yl]-3-phenylurea]",EC50,FPR2 [2],223 nM
same,FPR2 Ga16-CHO (efficacy),FPR2 [2],nM (1.0)
"CC1(CCc2ccccc2)NC(=O)N(NC(=O)Nc2ccccc2F)C1=O (stereo not drawn) [1-(2-fluorophenyl)-3-[4-methyl-2,5-dioxo-4-(2-phenylethyl)imidazolidin-1-yl]urea]",EC50,FPR2 [2],258 nM
same,FPR2 Ga16-CHO (efficacy),FPR2 [2],nM (0.94)
O=C(Nc1ccc([N+](=O)[O-])cc1)N[C@@H](Cc1ccccc1)C(=O)O [(2S)-2-({[(4-nitrophenyl)amino]carbonyl}amino)-3-phenylpropanoic acid],FPR2 Ga16-CHO (efficacy),FPR2 [2],nM (0.82)

# From patent US10208071B2, “Use of agonists of formyl peptide receptor 2 for treating ocular inflammatory diseases” (Allergan, Inc., priority 2013, dated 2019)
